The record followed here is publication PMC9701179, “New tricyclic systems as photosensitizers towards triple negative breast cancer cells” (Archives of Pharmacal Research, 2022).

The test system of assay [1] is MDA-MB-231 cells. Kind of assay: Mitochondrial membrane potential (Mito-ID kit). The class given is cell-based, human. To be noted: MDA-MB-231, UVA 2.0 J/cm^2; CCCP positive control. On the procedure: The ΔΨ was assayed using the Mito-ID® Membrane Potential Kit according to the manufacturer’s instructions (Enzo Life Sciences, Farmingdale, NY, USA) as previously described. Briefly, MDA-MB-231 cells (8 × 10^3 per well) were seeded in 96-well plates; after 24 h, cells were washed with PBS and loaded with Mito-ID Detection Reagent for 30 min at 37 °C in the dark. Afterwards, cells were incubated with increasing concentrations of tested compounds for 90 min and after that exposed to UVA light (2.0 J/cm^2). CCCP (Carbonyl cyanide 3-chlorophenyl-hydrazone) was used as positive control. Fluorescence intensity was estimated using a VICTOR X3 (PerkinElmer, USA) plate reader at 490 (excitation) and 590 nm (emission).
Induction of ROS production can in turn prompt the collapse of mitochondrial membrane potential as well as loss of mitochondrial integrity and functioning. […] MDA-MB-231 TNBC cells were treated with tested compounds upon UVA irradiation and the percentage of cells with hypopolarized mitochondrial membrane potential was determined fluorometrically by means of the Mito-ID® Membrane Potential Kit.
Fig. 5 Effects on mitochondrial membrane potential (A) and cell death induction (B) in human breast MDA-MB-231 cancer cells. A Cells were treated with 7h and 8e and stained with TMRM (10 nM). Fluorescence was estimated at 490 nm (excitation) and 590 nm (emission). Data are the means of five independent experiments. Error bars indicate S.D. * P < 0.05. B Cells were treated with concentrations of 7h and 8e equal to IC50 for 24 h and stained with the fluorescent dyes Hoechst 33342 and PI

Assay [2] concerns MDA-MB-231 cells. Kind of assay: MTT cytotoxicity/photocytotoxicity test on human TNBC MDA-MB-231 cells. The class given is cell-based. To be noted: Homo sapiens. On the procedure: The irradiation device used for the irradiation of cell cultures during the assays was a black box equipped with two Philips UVA lamps with an irradiance of 17 mW cm^−2 and a centered emission peak at 365 nm; UVA irradiance was measured using a Waldmann Variocontrol radiometer, equipped with a UVA sensor. The box was maintained at room temperature inside with a fan and the multiwell plates were placed onto a water-refrigerated metal block.
Human triple negative (TNBC) breast MDA-MB-231 carcinoma cells were obtained from American Type Culture Collection (ATCC, Rockville, MD, USA). Human embryonic kidney HEK293 cells were obtained from the European Collection of Cell Cultures (ECACC, Salisbury, UK). Cell lines were maintained in the logarithmic phase at 37 °C in a 5% CO2 atmosphere using the following culture media containing 10% foetal calf serum (Euroclone, Milan, Italy), antibiotics (50 units/mL penicillin and 50 μg/mL streptomycin) and 2 mM l-glutamine: (i) RPMI-1640 medium (Euroclone, Milan, Italy) for MDA-MB-231 4 cells; (ii) DMEM (Euroclone, Milan, Italy) for HEK293 cells.
Cells (5–8 × 10^3 cells/well, dependent upon the growth characteristics of the cell line) were seeded in 96-well microplates in growth medium (100 μL). After 24 h, the medium was removed and replaced with a fresh one containing the compound to be studied at the appropriate concentration. Triplicate cultures were established for each treatment. For photocytotoxicity studies, after 1 h of incubation the medium was replaced with PBS and cells were treated with 2.0 J cm^−2 of UVA light. After irradiation, PBS was replaced with complete proliferation media. For pre-irradiation studies, instead, compounds in PBS were irradiated with 2.0 J cm^−2 of UVA light and subsequently cells were treated with pre-irradiated solutions. Following 24 h, each well was treated with 10 μL of a 5 mg/mL MTT saline solution, and following 5 h of incubation, 100 μL of a sodium dodecyl sulfate (SDS) solution in HCl 0.01 M were added. After an overnight incubation, cell growth inhibition was detected by measuring the absorbance of each well at 570 nm using a Bio-Rad 680 microplate reader. Mean absorbance for each drug dose was expressed as a percentage of the control untreated well absorbance and plotted against drug concentration. IC50 values, the drug concentrations that reduce the mean absorbance at 570 nm to 50% of those in the untreated control wells, were calculated by the four-parameter logistic (4-PL) model. Evaluation was based on means from at least four independent experiments.
The new synthetized pyrrolo[1,2-h][1,7]naphthyridinones 7 and pyrido[2,3-c]pyrrolo[1,2-a]azepinones 8 were screened for their cytotoxicity (in the dark) and photocitotoxicity (upon UVA light irradiation at 2.0 J/cm^2) profile on human TNBC cells, MDA-MB-231. The cytotoxicity/photocytotoxicity parameters, expressed in terms of IC50 values obtained by MTT test after 24 h of drug-exposure, are listed in Table 2.

Assay [3] relates to MDA-MB-231 cells. Kind of assay: Intracellular ROS production (CM-H2DCFDA) under UVA. The class given is cell-based, human. To be noted: MDA-MB-231, 25 µM, 90 min, UVA 2.0 J/cm^2; antimycin 3 µM positive control. As to the method:
The production of ROS was measured in MDA-MB-231 cells (10^4 per well) grown for 24 h in a 96-well plate in RPMI medium without phenol red (Merk, Germany). Cells were then washed with PBS and loaded with 10 μM 5-(and-6)-chloromethyl-2′,7′-dichlorodihydrofluorescein diacetate acetyl ester (CM–H2DCFDA) (Molecular Probes-Invitrogen, Eugene, OR) for 45 min, in the dark. Afterwards, cells were washed with PBS and incubated with tested compounds (25 µM) for 90 min and after that exposed to UVA light (2.0 J/cm^2). Fluorescence increase was estimated utilizing the wavelengths of 485 nm (excitation) and 527 nm (emission) in a VICTOR X3 (PerkinElmer, USA) plate reader. Antimycin (3 μM, Merk), a potent inhibitor of Complex III in the electron transport chain, was used as positive control.
ROS production under light (UVA, 2.0 J/cm^2) was evaluated in MDA-MB-231 cell samples treated with increasing concentrations of tested compounds or antimycin, a potent inhibitor of Complex III of mitochondria electron chain, used as a positive control under the same experimental conditions (Fig. 4).
Fig. 4 Cellular ROS production (A) and total thiol redox state (B). A Effect of UVA activated tested compounds (25 µM) or antimycin (3 µM) on hydrogen peroxide formation in MDA-MB-231 cancer cells. B Sulfhydryl content in MDA-MB-231 cancer cells incubated for 24 h with UVA activated tested compounds. The sulfhydryl group amount was determined by the DTNB assay. Error bars indicate S.D

Setting [4] is: MDA-MB-231, in the dark, 1 h pre-treatment, recovered for total 24 h, read-out: Dark IC50 (µM) ± S.D.
Setting [5] is: light or radiation study, MDA-MB-231, 1 h pre-treatment, UVA 2.0 J/cm^2, recovered for total 24 h, read-out: UVA (2.0 J/cm^2) IC50 (µM) ± S.D.

Read-outs that look alike come from different tables or passages of the source. Where only a bound is given, the exact number is not on record here.

Regarding `CCOC(=O)c1ccc2n1CCc1cc(S(=O)(=O)c3ccccc3)c(=O)n(C)c1-2` [Compound 7e, Ethyl 3-(benzenesulfonyl)-1-methyl-2-oxo-1,2,5,6-tetrahydropyrrolo[1,2-h][1,7]naphthyridine-8-carboxylate], the “Cells with depolarized mitochondria (mitochondrial membrane potential)” value in assay [1] is recorded as “did not induce a substantial change in mitochondrial membrane potential”. Besides, the IC50 in assay [2] (setting [4]) and in assay [2] (setting [5]) was above 50 µM each time. The “Cellular ROS production (hydrogen peroxide formation)” value in assay [3] is recorded as “hardly effective in inducing any ROS basal level production increase”.

For `CC(C)OC(=O)c1ccc2n1CCCc1cc(S(=O)(=O)c3ccccc3)c(=O)n(C)c1-2` [Compound 8d, Propan-2-yl 3-(benzenesulfonyl)-1-methyl-2-oxo-1,5,6,7-tetrahydro-2H-pyrido[2,3-c]pyrrolo[1,2-a]azepine-9-carboxylate], the “Cells with depolarized mitochondria (mitochondrial membrane potential)” value in assay [1] was “did not induce a substantial change in mitochondrial membrane potential”. The IC50 in assay [2] (setting [4]) and in assay [2] (setting [5]) was above 50 µM throughout. In addition, the “Cellular ROS production (hydrogen peroxide formation)” value in assay [3] was “hardly effective in inducing any ROS basal level production increase”.
